# Read-outs that look alike come from different tables or passages of the source.
# How the values were obtained:
# Test in all cases: Test C pre/postemergence
# Format in all cases: in vivo
# [1] = tested on: crabgrass (Digitaria sanguinalis); conditions: Digitaria sanguinalis; for pest or weed control at 62 g/ha: 62 g ai/ha; for pest or weed control at 125 g/ha: 125 g ai/ha; for pest or weed control at 250 g/ha: 250 g ai/ha; for pest or weed control at 500 g/ha: 500 g ai/ha
# Method in brief: (§1)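 Pre: seeds planted, sprayed same day. Post: 1- to 4-leaf plants (2–18 cm). Formulation: non-phytotoxic solvent + surfactant. Greenhouse 12–14 d; visual % control vs untreated, 0–100.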
# [2] = tested on: common (oilseed) sunflower (Helianthus annuus); conditions: Helianthus annuus, pre-emergence, Preemergence, read-out: Plant response rating, Sunflower
# Method in brief: as §1
# [3] = tested on: pigweed (Amaranthus retroflexus); conditions: Amaranthus retroflexus; for pest or weed control at 62 g/ha: 62 g ai/ha; for pest or weed control at 125 g/ha: 125 g ai/ha; for pest or weed control at 250 g/ha: 250 g ai/ha; for pest or weed control at 500 g/ha: 500 g ai/ha
# Method in brief: as §1
# [4] = tested on: velvetleaf (Abutilon theophrasti); conditions: Abutilon theophrasti; for pest or weed control at 62 g/ha: 62 g ai/ha; for pest or weed control at 125 g/ha: 125 g ai/ha; for pest or weed control at 250 g/ha: 250 g ai/ha; for pest or weed control at 500 g/ha: 500 g ai/ha
# Method in brief: as §1
# [5] = tested on: common ragweed (Ambrosia elatior); conditions: Ambrosia artemisiifolia; for pest or weed control at 62 g/ha: 62 g ai/ha; for pest or weed control at 125 g/ha: 125 g ai/ha; for pest or weed control at 250 g/ha: 250 g ai/ha; for pest or weed control at 500 g/ha: 500 g ai/ha
# Method in brief: as §1
# [6] = tested on: Surinam grass (Brachiaria decumbens); conditions: Urochloa decumbens; for pest or weed control at 125 g/ha: 125 g ai/ha; for pest or weed control at 500 g/ha: 500 g ai/ha; for pest or weed control at 62 g/ha: 62 g ai/ha; for pest or weed control at 250 g/ha: 250 g ai/ha
# Method in brief: as §1
# [7] = tested on: kochia (Kochia scoparia); conditions: Bassia scoparia, post-emergence, Postemergence, scale 0 to 100 (0 no effect, 100 complete control), read-out: Kochia plant response rating
# Method in brief: as §1
# [8] = post-emergence, Postemergence, scale 0 to 100 (0 no effect, 100 complete control), read-out: Crabgrass plant response rating
# [9] = post-emergence, Postemergence, scale 0 to 100, read-out: Plant response rating, Crabgrass
# [10] = pre-emergence, Preemergence, scale 0 to 100, read-out: Plant response rating, Crabgrass
# [11] = post-emergence, Postemergence, scale 0 to 100 (0 no effect, 100 complete control), read-out: Pigweed plant response rating
# [12] = post-emergence, Postemergence, scale 0 to 100, read-out: Plant response rating, Pigweed
# [13] = pre-emergence, Preemergence, scale 0 to 100, read-out: Plant response rating, Pigweed
# [14] = post-emergence, Postemergence, scale 0 to 100 (0 no effect, 100 complete control), read-out: Velvetleaf plant response rating
# [15] = post-emergence, Postemergence, scale 0 to 100, read-out: Plant response rating, Velvetleaf
# [16] = pre-emergence, Preemergence, scale 0 to 100, read-out: Plant response rating, Velvetleaf
# [17] = post-emergence, Postemergence, scale 0 to 100 (0 no effect, 100 complete control), read-out: Ragweed plant response rating
# [18] = post-emergence, Postemergence, scale 0 to 100, read-out: Plant response rating, Ragweed
# [19] = pre-emergence, Preemergence, scale 0 to 100, read-out: Plant response rating, Ragweed
# [20] = post-emergence, Postemergence, scale 0 to 100 (0 no effect, 100 complete control), read-out: Surinam Grass plant response rating
# [21] = post-emergence, Postemergence, scale 0 to 100, read-out: Plant response rating, Surinam Grass
# [22] = pre-emergence, Preemergence, scale 0 to 100, read-out: Plant response rating, Surinam Grass
compound,measurement,setting,value
"CCOC(=O)c1nc(C2CC2)nc(N)c1Br [Compound 1, ethyl 6-amino-5-bromo-2-cyclopropyl-4-pyrimidinecarboxylate]",pest or weed control at 62 g/ha,[1]; [8],30%
same,pest or weed control at 125 g/ha,[1]; [8],85%
same,pest or weed control at 250 g/ha,[1]; [9],85%
same,pest or weed control at 500 g/ha,[1]; [9],90%
same,pest or weed control at 62 g/ha,"[1]; pre-emergence, Preemergence, scale 0 to 100, 0 no effect, 100 complete control, read-out: Plant response rating, Crabgrass",10%
same,pest or weed control at 125 g/ha,[1]; [10],60%
same,pest or weed control at 250 g/ha,[1]; [10],90%
same,pest or weed control at 500 g/ha,[1]; [10],95%
same,pest or weed control at 62 g/ha,"[2]; 62 g ai/ha, scale 0 to 100, 0 no effect, 100 complete control",80%
same,pest or weed control at 125 g/ha,"[2]; 125 g ai/ha, scale 0 to 100",100%
same,pest or weed control at 250 g/ha,"[2]; 250 g ai/ha, scale 0 to 100",100%
same,pest or weed control at 500 g/ha,"[2]; 500 g ai/ha, scale 0 to 100",100%
same,pest or weed control at 62 g/ha,[3]; [11],90%
same,pest or weed control at 125 g/ha,[3]; [11],100%
same,pest or weed control at 250 g/ha,[3]; [12],100%
same,pest or weed control at 500 g/ha,[3]; [12],100%
same,pest or weed control at 62 g/ha,"[3]; pre-emergence, Preemergence, scale 0 to 100, 0 no effect, 100 complete control, read-out: Plant response rating, Pigweed",90%
same,pest or weed control at 125 g/ha,[3]; [13],100%
same,pest or weed control at 250 g/ha,[3]; [13],100%
same,pest or weed control at 500 g/ha,[3]; [13],100%
same,pest or weed control at 62 g/ha,[4]; [14],85%
same,pest or weed control at 125 g/ha,[4]; [14],90%
same,pest or weed control at 250 g/ha,[4]; [15],100%
same,pest or weed control at 500 g/ha,[4]; [15],100%
same,pest or weed control at 62 g/ha,"[4]; pre-emergence, Preemergence, scale 0 to 100, 0 no effect, 100 complete control, read-out: Plant response rating, Velvetleaf",80%
same,pest or weed control at 125 g/ha,[4]; [16],90%
same,pest or weed control at 250 g/ha,[4]; [16],95%
same,pest or weed control at 500 g/ha,[4]; [16],100%
same,pest or weed control at 62 g/ha,[5]; [17],100%
same,pest or weed control at 125 g/ha,[5]; [17],100%
same,pest or weed control at 250 g/ha,[5]; [18],100%
same,pest or weed control at 500 g/ha,[5]; [18],100%
same,pest or weed control at 62 g/ha,"[5]; pre-emergence, Preemergence, scale 0 to 100, 0 no effect, 100 complete control, read-out: Plant response rating, Ragweed",95%
same,pest or weed control at 125 g/ha,[5]; [19],100%
same,pest or weed control at 250 g/ha,[5]; [19],100%
same,pest or weed control at 500 g/ha,[5]; [19],100%
same,pest or weed control at 125 g/ha,[6]; [20],90%
same,pest or weed control at 500 g/ha,[6]; [21],95%
same,pest or weed control at 62 g/ha,[6]; [20],90%
same,pest or weed control at 250 g/ha,[6]; [21],90%
same,pest or weed control at 62 g/ha,"[6]; pre-emergence, Preemergence, scale 0 to 100, 0 no effect, 100 complete control, read-out: Plant response rating, Surinam Grass",0%
same,pest or weed control at 125 g/ha,[6]; [22],35%
same,pest or weed control at 250 g/ha,[6]; [22],90%
same,pest or weed control at 500 g/ha,[6]; [22],90%
same,pest or weed control at 62 g/ha,[7]; 62 g ai/ha,100%
same,pest or weed control at 125 g/ha,[7]; 125 g ai/ha,100%
